Measured values as given in ChEMBL document CHEMBL4425154, “New P2X3 receptor antagonists. Part 2: Identification and SAR of quinazolinones” (Bioorg Med Chem Lett, 2016).

Conditions: human, microsomes, 2.5 µM

| Structure (SMILES) | CLH |
| --- | --- |
| NS(=O)(=O)c1ccccc1-c1ccc2ncnc(NCc3ccc(Cl)nc3)c2c1 | 0.024 mL/h/kg |
| COc1ccc(OC)c(CCN2CCc3ccc(-c4ccccc4S(N)(=O)=O)cc3C2)c1 | 1.38 mL/h/kg |
| CNc1ccc(-c2ccccc2S(N)(=O)=O)cc1C(=O)NCCc1cc(OC)ccc1OC | 11.5 mL/h/kg |
| COc1cc(CCn2cnc3ccc(-c4ccccc4S(=O)(=O)N(C)C)cc3c2=O)cc(OC)c1 | 17.6 mL/h/kg |
| COc1ccc(OC)c(C(C)n2cnc3ccc(-c4ccccc4S(N)(=O)=O)cc3c2=O)c1 (stereo unspecified) | 2.88 mL/h/kg |
| COc1cc(CCn2cnc3ccc(-c4noc(C)n4)cc3c2=O)cc(OC)c1 | 1.32 mL/h/kg |
